The text below walks through data of US20080234332A1, “RAF KINASE INHIBITORS CONTAINING A ZINC BINDING MOIETY” (priority 2007, published 2008).

Common to all, as to format: biochemical
Test [1] concerns the target T1, VEGFR2 (Homo sapiens, UniProt P35968).
T1 construct: GST (N); His6 (N); Thrombin cleavage site (N); purchased Cell Signaling Technologies; host or cells: baculovirus expression system
The test can be described thus: HTScan VEGFR2 Kinase Assay (DELFIA). The note with it: 200 μM ATP; read-out: VEGFR2 IC50 grade. As to the method:
The ability of compounds to inhibit VEGFR2 kinase activity was assayed using HTScan™ VEGFR2 Kinase Assay Kits (Cell Signaling Technologies, Danvers, Mass.). […] The protein was purified by one-step affinity chromatography using glutathione-agarose.
Immediately transfer enzyme from −80° C. to ice. Allowed enzyme to thaw on ice. […] Returned immediately to ice. […] Incubated reaction plate at room temperature for 30 minutes. […] Added 100 μl/well primary antibody. Incubated at room temperature for 60 minutes. […] Added 100 μl/well diluted antibody. Incubated at room temperature for 30 minutes. […] Incubated at room temperature for 5 minutes.
(§1) The following TABLE B lists compounds representative of the invention and their activity in HDAC, VEGFR2 and RAF assays.

Test [2] concerns the target T2, B-Raf (Homo sapiens, UniProt P15056).
T2 construct: purchased Upstate 17-359
The test can be described thus: Raf kinase assay (B-Raf kit, MEK-1 substrate, dot blot). The note with it: 250 μM ATP; read-out: B-Raf IC50 grade. As to the method:
(§2) The Raf kinase assay was performed by following the protocol of Raf kinase assay kit (B-Raf, Upstate, catalog# 17-359; C-Raf, Upstate, catalog# 17-360) with modifications. Briefly, assay buffer, ATP, substrate and Raf kinase were mixed in a 96 well assay plate. The final kinase assay mixture contained 20 mM MOPS, pH7.2, 25 mM β-glycerol phosphate, 5 mM EGTA, 1 mM sodium orthovanadate, 1 mM DTT, 250 μM ATP and 37.5 mM magnesium chloride, 0.1 μg/well of Raf kinase, and 1 μg/well of MEK-1 substrate protein. Assay samples were incubated for 30 min at room temperature. The kinase reaction was stopped by adding EDTA, pH8 to a final concentration of 25 mM. A 10 μl of the reaction sample was spotted onto nitrocellulose filter and dot blot was performed by adding 1 μg/ml of anti-phospho-MEK-1 antibody in the blocking solution (Licor Bioscience, catalogue # 927-40000). The nitrocellulose filter was subsequently incubated with secondary IRDye 800CW goat anti-rabbit antibody (Licor Bioscience, catalogue # 926-32211) before reading the signal on an Odyssey imager (Licor Bioscience).
as §1

In test [3] the target is C-Raf (Homo sapiens, UniProt P04049). Put plainly: Raf kinase assay (C-Raf kit, MEK-1 substrate, dot blot). Particulars: 250 μM ATP; read-out: C-Raf IC50 grade. As to the method: as §2, §1
C-Raf, sequence (P04049 whole entry Y340D/Y341D, form open): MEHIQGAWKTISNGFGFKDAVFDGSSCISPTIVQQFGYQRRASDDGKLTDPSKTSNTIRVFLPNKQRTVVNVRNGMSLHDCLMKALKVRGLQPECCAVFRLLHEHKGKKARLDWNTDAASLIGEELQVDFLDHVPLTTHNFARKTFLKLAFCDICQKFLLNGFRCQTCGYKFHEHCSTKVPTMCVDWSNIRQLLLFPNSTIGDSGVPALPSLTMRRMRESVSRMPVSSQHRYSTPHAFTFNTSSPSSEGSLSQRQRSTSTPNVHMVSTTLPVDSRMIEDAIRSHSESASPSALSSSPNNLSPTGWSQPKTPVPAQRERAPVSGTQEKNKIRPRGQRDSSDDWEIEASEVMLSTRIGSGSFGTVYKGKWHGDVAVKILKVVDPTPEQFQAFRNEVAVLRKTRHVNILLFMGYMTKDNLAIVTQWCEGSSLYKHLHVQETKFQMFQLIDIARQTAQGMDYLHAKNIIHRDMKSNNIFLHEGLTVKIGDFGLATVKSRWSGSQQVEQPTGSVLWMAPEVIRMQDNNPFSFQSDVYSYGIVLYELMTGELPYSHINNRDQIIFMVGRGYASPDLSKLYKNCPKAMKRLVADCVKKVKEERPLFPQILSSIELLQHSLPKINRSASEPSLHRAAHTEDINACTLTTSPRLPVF
In test [4] the test system is HDAC. Put plainly: HDAC fluorimetric assay kit (HeLa nuclear extract). Particulars: read-out: HDAC IC50 grade. As to the method: HDAC inhibitors were screened using an HDAC fluorimetric assay kit (AK-500, Biomol, Plymouth Meeting, Pa.). […] Each assay was setup as follows: Defrosted all kit components and kept on ice until use. Diluted HeLa nuclear extract 1:29 in assay buffer (50 mM Tris/Cl, pH 8.0, 137 mM NaCl, 2.7 mM KCl, 1 mM MgCl2). Prepared dilutions of Trichostatin A (TSA, positive control) and tested compounds in assay buffer (5× of final concentration). Diluted Fluor de LysTM Substrate in assay buffer to 100 uM (50 fold=2× final). Diluted Fluor de LysTM developer concentrate 20-fold (e.g. 50 μl plus 950 μl assay buffer) in cold assay buffer. Second, diluted the 0.2 mM Trichostatin A 100-fold in the 1× Developer (e.g. 10 μl in 1 ml; final Trichostatin A concentration in the 1× Developer=2 μM; final concentration after addition to HDAC/Substrate reaction=1 μM). Added assay buffer, diluted trichostatin A or test inhibitor to appropriate wells of the microtiter plate. Added diluted HeLa extract or other HDAC sample to all wells except for negative controls. Allowed diluted Fluor de LysTM Substrate and the samples in the microtiter plate to equilibrate to assay temperature (e.g. 25 or 37° C. Initiated HDAC reactions by adding diluted substrate (25 μl) to each well and mixing thoroughly. Allowed HDAC reactions to proceed for 1 hour and then stopped them by addition of Fluor de LysTM Developer (50 μl). Incubated plate at room temperature (25° C.) for 10-15 min. Read samples in a microtiter-plate reading fluorimeter capable of excitation at a wavelength in the range 350-380 nm and detection of emitted light in the range 440-460 nm.
as §1

In test [5] the target is PDGFRβ (Homo sapiens, UniProt P09619). Put plainly: PDGFRβ kinase inhibition (Table B). The note with it: read-out: PDGFRβ IC50 grade.
PDGFRβ, sequence (P09619 33-1106, species assumed): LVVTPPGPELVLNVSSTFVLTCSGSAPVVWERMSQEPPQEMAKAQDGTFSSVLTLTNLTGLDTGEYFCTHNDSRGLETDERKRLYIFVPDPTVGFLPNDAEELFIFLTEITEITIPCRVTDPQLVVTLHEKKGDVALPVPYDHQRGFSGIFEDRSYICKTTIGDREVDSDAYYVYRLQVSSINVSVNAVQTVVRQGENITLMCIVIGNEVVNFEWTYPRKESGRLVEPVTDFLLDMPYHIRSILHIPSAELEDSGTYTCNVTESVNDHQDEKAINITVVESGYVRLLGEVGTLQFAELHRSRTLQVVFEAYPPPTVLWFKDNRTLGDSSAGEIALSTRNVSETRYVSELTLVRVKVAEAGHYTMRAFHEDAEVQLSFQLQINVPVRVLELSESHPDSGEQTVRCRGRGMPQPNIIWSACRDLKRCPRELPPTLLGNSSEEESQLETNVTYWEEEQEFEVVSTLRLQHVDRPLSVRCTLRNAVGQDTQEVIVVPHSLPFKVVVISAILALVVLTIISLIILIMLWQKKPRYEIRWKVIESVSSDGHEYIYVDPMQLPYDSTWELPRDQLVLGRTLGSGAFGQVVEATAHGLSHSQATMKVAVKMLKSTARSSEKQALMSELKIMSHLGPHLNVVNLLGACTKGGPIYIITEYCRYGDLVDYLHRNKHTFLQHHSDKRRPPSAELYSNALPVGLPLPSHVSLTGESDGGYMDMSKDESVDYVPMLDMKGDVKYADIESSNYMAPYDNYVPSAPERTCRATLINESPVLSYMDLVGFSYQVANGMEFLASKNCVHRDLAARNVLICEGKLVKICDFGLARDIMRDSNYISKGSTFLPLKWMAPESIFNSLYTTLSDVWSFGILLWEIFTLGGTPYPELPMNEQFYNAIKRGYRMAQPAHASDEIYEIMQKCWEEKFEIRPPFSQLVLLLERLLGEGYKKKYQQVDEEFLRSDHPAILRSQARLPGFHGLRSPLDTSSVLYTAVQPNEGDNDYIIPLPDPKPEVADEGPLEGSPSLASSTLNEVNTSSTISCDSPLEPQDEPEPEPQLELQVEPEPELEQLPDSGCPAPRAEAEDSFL
Test [6] concerns the target cKit (Homo sapiens, UniProt P10721). Put plainly: cKit kinase inhibition (Table B). The note with it: read-out: cKit IC50 grade.

T2 sequence (P15056 whole entry): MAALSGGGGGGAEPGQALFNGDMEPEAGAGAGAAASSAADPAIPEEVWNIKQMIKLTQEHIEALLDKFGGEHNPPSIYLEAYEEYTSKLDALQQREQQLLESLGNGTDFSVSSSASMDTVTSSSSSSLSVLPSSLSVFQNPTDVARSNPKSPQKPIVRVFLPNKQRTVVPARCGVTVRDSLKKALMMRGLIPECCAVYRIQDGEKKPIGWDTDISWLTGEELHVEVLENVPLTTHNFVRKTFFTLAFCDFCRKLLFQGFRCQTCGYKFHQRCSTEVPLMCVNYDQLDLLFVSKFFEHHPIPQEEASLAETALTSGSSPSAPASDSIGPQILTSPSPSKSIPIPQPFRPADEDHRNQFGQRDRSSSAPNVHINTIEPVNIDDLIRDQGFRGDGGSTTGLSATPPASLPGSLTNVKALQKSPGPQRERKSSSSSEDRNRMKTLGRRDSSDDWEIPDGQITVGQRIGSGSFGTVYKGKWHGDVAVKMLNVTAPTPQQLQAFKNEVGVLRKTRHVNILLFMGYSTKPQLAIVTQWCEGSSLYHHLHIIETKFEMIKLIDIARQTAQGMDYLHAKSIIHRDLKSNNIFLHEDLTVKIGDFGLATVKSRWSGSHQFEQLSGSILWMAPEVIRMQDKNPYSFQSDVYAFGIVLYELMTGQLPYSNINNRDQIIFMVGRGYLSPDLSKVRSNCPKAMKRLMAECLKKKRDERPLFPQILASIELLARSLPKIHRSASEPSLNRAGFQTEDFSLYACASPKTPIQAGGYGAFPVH
cKit, sequence (P10721 26-976): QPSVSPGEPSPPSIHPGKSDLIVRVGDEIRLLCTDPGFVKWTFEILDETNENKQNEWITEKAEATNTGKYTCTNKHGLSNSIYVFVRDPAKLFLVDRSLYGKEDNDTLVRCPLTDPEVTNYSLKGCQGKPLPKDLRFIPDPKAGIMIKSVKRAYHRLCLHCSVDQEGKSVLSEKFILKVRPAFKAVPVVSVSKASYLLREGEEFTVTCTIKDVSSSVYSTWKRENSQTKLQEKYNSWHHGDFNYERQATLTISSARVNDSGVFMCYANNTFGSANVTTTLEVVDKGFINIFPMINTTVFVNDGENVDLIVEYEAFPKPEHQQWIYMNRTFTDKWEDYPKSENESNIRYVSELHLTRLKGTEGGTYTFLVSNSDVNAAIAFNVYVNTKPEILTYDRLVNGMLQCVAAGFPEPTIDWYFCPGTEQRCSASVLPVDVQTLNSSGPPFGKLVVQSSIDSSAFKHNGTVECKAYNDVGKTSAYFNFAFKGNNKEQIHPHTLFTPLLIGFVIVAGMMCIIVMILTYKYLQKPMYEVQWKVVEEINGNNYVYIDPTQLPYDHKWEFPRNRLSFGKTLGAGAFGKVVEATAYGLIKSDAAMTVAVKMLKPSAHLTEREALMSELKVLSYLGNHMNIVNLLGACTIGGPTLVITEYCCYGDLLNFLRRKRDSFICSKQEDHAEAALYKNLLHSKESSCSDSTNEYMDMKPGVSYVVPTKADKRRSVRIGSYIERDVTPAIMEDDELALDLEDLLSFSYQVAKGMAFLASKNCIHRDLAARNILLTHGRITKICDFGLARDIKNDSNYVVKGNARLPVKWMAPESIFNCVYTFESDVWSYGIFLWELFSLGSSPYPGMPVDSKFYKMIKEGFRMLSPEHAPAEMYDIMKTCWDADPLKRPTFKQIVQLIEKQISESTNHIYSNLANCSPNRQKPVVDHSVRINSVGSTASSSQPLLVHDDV
T1 sequence (P35968 805-1356): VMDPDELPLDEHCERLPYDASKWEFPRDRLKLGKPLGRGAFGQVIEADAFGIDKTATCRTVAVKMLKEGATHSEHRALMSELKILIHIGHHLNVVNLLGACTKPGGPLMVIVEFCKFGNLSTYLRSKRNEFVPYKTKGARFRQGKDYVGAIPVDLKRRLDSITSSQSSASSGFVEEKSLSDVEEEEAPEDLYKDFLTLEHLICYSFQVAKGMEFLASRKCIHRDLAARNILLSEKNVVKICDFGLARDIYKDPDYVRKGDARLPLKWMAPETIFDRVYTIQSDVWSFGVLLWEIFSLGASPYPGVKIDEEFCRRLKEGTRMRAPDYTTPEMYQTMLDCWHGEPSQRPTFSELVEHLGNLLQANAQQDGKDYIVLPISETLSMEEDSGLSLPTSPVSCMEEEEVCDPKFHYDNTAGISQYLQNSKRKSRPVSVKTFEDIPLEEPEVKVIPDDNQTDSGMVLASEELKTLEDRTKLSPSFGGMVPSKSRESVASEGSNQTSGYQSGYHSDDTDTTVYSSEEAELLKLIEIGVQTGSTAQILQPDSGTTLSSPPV

What is called IC50 is the concentration that inhibits the measured activity by half. Regarding `O=C(CCCCCNC(=O)c1cc(Oc2ccc(NC(=O)Nc3ccc(Cl)c(C(F)(F)F)c3)cc2)ccn1)NO` [Compound 5, 4-(4-(3-(4-Chloro-3-(trifluoromethyl)phenyl)ureido)phenoxy)-N-(6-(hydroxyamino)-6-oxohexyl)picolinamide], the 50% inhibitory concentration (IC50) is less than 100 nM in test [1]; 1000 to 10000 nM in test [2]; 1000 to 10000 nM in test [3]; 100 to 1000 nM in test [4]; 100 to 1000 nM in test [5]; less than 100 nM in test [6].
